Results from US20180200257A1, “METHODS FOR THE TREATMENT OF INFLAMMATORY DISORDERS” (Galapagos NV, priority 2015, published 2018).

Tested on: subjects with moderately to severely active RA who have an inadequate response to methotrexate (MTX)
Experiment: Study 1 (add-on to MTX) - Subject VAS mean changes (ACR patient assessment)
Type: in vivo, human
Experimental: The scale is 100 mm, the decrease in mm is shown. […] (dotted line), 100 mg q.d. (dashed line) or 200 mg q.d. (dark solid line). […] The results shown in the figures are calculated using Last-Observation-Carried-Forward (LOCF), which handles missing data by assigning the value recorded at the patient's last visit to all subsequent missed visits.
Double-blind, placebo-controlled add on study in subjects with moderately to severely active RA who have an inadequate response to methotrexate (MTX) (oral or parenteral).
595 subjects randomized to one of 6 dose regimens of Compound 1 (dosed as [Compound 1:HCl:3H2O]) (3 dose levels administered either once or twice daily) or placebo on top of each subject's stable dose of MTX.
Compound 1 (dosed as [Compound 1:HCl:3H2O]) is dosed for twelve weeks once daily (q.d.) (50 mg, 100 mg or 200 mg) or twice daily (b.i.d.) (25 mg, 50 mg or 100 mg); or placebo.
At Week 12, the subjects on placebo who have not achieved 20% improvement in swollen joint count (SJC66) and tender joint count (TJC68) are re-randomized automatically to receive Compound 1 (dosed as a [Compound 1:HCl:3H2O]) either at 100 mg q.d. or 50 mg b.i.d. doses in a blinded fashion; subjects on 50 mg q.d. who have not achieved 20% improvement in SJC66 and TJC68 will be assigned to 100 mg q.d. and subjects on 25 mg b.i.d. that have not achieved a 20% improvement in SJC66 and TJC68 will be assigned to 50 mg b.i.d. Subjects who switch treatment at week 12 are handled as if they discontinued at week 12 for the purpose of statistical analysis, whereas subjects in the other groups will maintain their randomized treatment until Week 24.
Firstly, the patient is asked to make a vertical mark on a 100 mm Visual Analog Scale (VAS) corresponding to their general health or global disease activity on a touch screen to measure the VAS value, which is used in the formula below.
The American College of Rheumatology (ACR) composite score, which evaluates clinical improvement relative to an initial assessment, is a commonly accepted efficacy end point for clinical trials in patients with rheumatoid arthritis. The ACR score correspond to a percentage improvement in pre-set parameters, and therefore measures the evolution of the disease in a patient. For example, ACR20 denotes at least 20% improvement in tender and swollen joint counts and in three of the following end points: global assessment by the patient, global assessment by the doctor, C reactive protein (CRP), patient's pain Visual Analogue Scale and Health Assessment Questionnaire Score. The number of swollen joints, ESR and CRP correlate with radiographic progression of joint damage, whereas tender joint counts, as well as global assessments by doctors and patients, and patients' reports of pain, are sensitive to change in clinical outcomes. Physical function, as assessed by the Health Assessment Questionnaire Score, is a potent predictor of the risk of disability in rheumatoid arthritis (Felson and American College of Rheumatology Committee to Reevaluate Improvement Criteria, 2007; Felson et al., 1993).

Compound: O=C(Nc1nc2cccc(-c3ccc(CN4CCS(=O)(=O)CC4)cc3)n2n1)C1CC1 [Compound 1, cyclopropanecarboxylic acid {5-[4-(1,1-dioxo-thiomorpholin-4-ylmethyl)-phenyl]-[1,2,4]triazolo[1,5-a]pyridin-2-yl}-amide]
- Subject VAS mean changes (ACR patient assessment) (50 mg q.d., week 0, LOCF, 24 weeks results): 0.0
- Subject VAS mean changes (ACR patient assessment) (50 mg q.d., week 2, LOCF, 24 weeks results): −15.5
- Subject VAS mean changes (ACR patient assessment) (50 mg q.d., week 4, LOCF, 24 weeks results): −20.9
- Subject VAS mean changes (ACR patient assessment) (50 mg q.d., week 8, LOCF, 24 weeks results): −26.4
- Subject VAS mean changes (ACR patient assessment) (50 mg q.d., week 12, LOCF, 24 weeks results): −25.2
- Subject VAS mean changes (ACR patient assessment) (50 mg q.d., week 16, LOCF, 24 weeks results): −27.7
- Subject VAS mean changes (ACR patient assessment) (50 mg q.d., week 20, LOCF, 24 weeks results): −28.1
- Subject VAS mean changes (ACR patient assessment) (50 mg q.d., week 24, LOCF, 24 weeks results): −29.4
- Subject VAS mean changes (ACR patient assessment) (50 mg q.d., week 0, LOCF, 12 weeks results): 0.0
- Subject VAS mean changes (ACR patient assessment) (50 mg q.d., week 1, LOCF, 12 weeks results): −11.2
- Subject VAS mean changes (ACR patient assessment) (50 mg q.d., week 2, LOCF, 12 weeks results): −15.5
- Subject VAS mean changes (ACR patient assessment) (50 mg q.d., week 4, LOCF, 12 weeks results): −20.9
- Subject VAS mean changes (ACR patient assessment) (50 mg q.d., week 8, LOCF, 12 weeks results): −26.4
- Subject VAS mean changes (ACR patient assessment) (50 mg q.d., week 12, LOCF, 12 weeks results): −25.2
- Subject VAS mean changes (ACR patient assessment) (100 mg q.d., week 0, LOCF, 24 weeks results): 0.0
- Subject VAS mean changes (ACR patient assessment) (100 mg q.d., week 2, LOCF, 24 weeks results): −20.9
- Subject VAS mean changes (ACR patient assessment) (100 mg q.d., week 4, LOCF, 24 weeks results): −24.4
- Subject VAS mean changes (ACR patient assessment) (100 mg q.d., week 8, LOCF, 24 weeks results): −29.8
- Subject VAS mean changes (ACR patient assessment) (100 mg q.d., week 12, LOCF, 24 weeks results): −29.1
- Subject VAS mean changes (ACR patient assessment) (100 mg q.d., week 16, LOCF, 24 weeks results): −31.7
- Subject VAS mean changes (ACR patient assessment) (100 mg q.d., week 20, LOCF, 24 weeks results): −35.1
- Subject VAS mean changes (ACR patient assessment) (100 mg q.d., week 24, LOCF, 24 weeks results): −34.4
- Subject VAS mean changes (ACR patient assessment) (100 mg q.d., week 0, LOCF, 12 weeks results): 0.0
- Subject VAS mean changes (ACR patient assessment) (100 mg q.d., week 1, LOCF, 12 weeks results): −13.2
- Subject VAS mean changes (ACR patient assessment) (100 mg q.d., week 2, LOCF, 12 weeks results): −20.8
- Subject VAS mean changes (ACR patient assessment) (100 mg q.d., week 4, LOCF, 12 weeks results): −24.4
- Subject VAS mean changes (ACR patient assessment) (100 mg q.d., week 8, LOCF, 12 weeks results): −29.8
- Subject VAS mean changes (ACR patient assessment) (100 mg q.d., week 12, LOCF, 12 weeks results): −29.1
- Subject VAS mean changes (ACR patient assessment) (200 mg q.d., week 0, LOCF, 24 weeks results): 0.0
- Subject VAS mean changes (ACR patient assessment) (200 mg q.d., week 2, LOCF, 24 weeks results): −21.8
- Subject VAS mean changes (ACR patient assessment) (200 mg q.d., week 4, LOCF, 24 weeks results): −24.9
- Subject VAS mean changes (ACR patient assessment) (200 mg q.d., week 8, LOCF, 24 weeks results): −29.6
- Subject VAS mean changes (ACR patient assessment) (200 mg q.d., week 12, LOCF, 24 weeks results): −34.2
- Subject VAS mean changes (ACR patient assessment) (200 mg q.d., week 16, LOCF, 24 weeks results): −32.9
- Subject VAS mean changes (ACR patient assessment) (200 mg q.d., week 20, LOCF, 24 weeks results): −33.0
- Subject VAS mean changes (ACR patient assessment) (200 mg q.d., week 24, LOCF, 24 weeks results): −34.9
- Subject VAS mean changes (ACR patient assessment) (200 mg q.d., week 0, LOCF, 12 weeks results): 0.0
- Subject VAS mean changes (ACR patient assessment) (200 mg q.d., week 1, LOCF, 12 weeks results): −16.7
- Subject VAS mean changes (ACR patient assessment) (200 mg q.d., week 2, LOCF, 12 weeks results): −21.8
- Subject VAS mean changes (ACR patient assessment) (200 mg q.d., week 4, LOCF, 12 weeks results): −25.2
- Subject VAS mean changes (ACR patient assessment) (200 mg q.d., week 8, LOCF, 12 weeks results): −29.6
- Subject VAS mean changes (ACR patient assessment) (200 mg q.d., week 12, LOCF, 12 weeks results): −34.0
- Subject VAS mean changes (ACR patient assessment) (2 × 25 mg b.i.d., week 0, LOCF, 12 weeks results): 0.0
- Subject VAS mean changes (ACR patient assessment) (2 × 25 mg b.i.d., week 0, LOCF, 24 weeks results): 0.0
- Subject VAS mean changes (ACR patient assessment) (2 × 25 mg b.i.d., week 1, LOCF, 12 weeks results): −8.2
- Subject VAS mean changes (ACR patient assessment) (2 × 25 mg b.i.d., week 2, LOCF, 12 weeks results): −11.7
- Subject VAS mean changes (ACR patient assessment) (2 × 25 mg b.i.d., week 2, LOCF, 24 weeks results): −11.7
- Subject VAS mean changes (ACR patient assessment) (2 × 25 mg b.i.d., week 4, LOCF, 12 weeks results): −16.0
- Subject VAS mean changes (ACR patient assessment) (2 × 25 mg b.i.d., week 4, LOCF, 24 weeks results): −16.0
- Subject VAS mean changes (ACR patient assessment) (2 × 25 mg b.i.d., week 8, LOCF, 12 weeks results): −22.2
- Subject VAS mean changes (ACR patient assessment) (2 × 25 mg b.i.d., week 8, LOCF, 24 weeks results): −22.2
- Subject VAS mean changes (ACR patient assessment) (2 × 25 mg b.i.d., week 12, LOCF, 12 weeks results): −25.2
- Subject VAS mean changes (ACR patient assessment) (2 × 25 mg b.i.d., week 12, LOCF, 24 weeks results): −25.2
- Subject VAS mean changes (ACR patient assessment) (2 × 25 mg b.i.d., week 16, LOCF, 24 weeks results): −25.5
- Subject VAS mean changes (ACR patient assessment) (2 × 25 mg b.i.d., week 20, LOCF, 24 weeks results): −25.6
- Subject VAS mean changes (ACR patient assessment) (2 × 25 mg b.i.d., week 24, LOCF, 24 weeks results): −27.3
- Subject VAS mean changes (ACR patient assessment) (2 × 50 mg b.i.d., week 0, LOCF, 12 weeks results): 0.0
- Subject VAS mean changes (ACR patient assessment) (2 × 50 mg b.i.d., week 1, LOCF, 12 weeks results): −8.8
- Subject VAS mean changes (ACR patient assessment) (2 × 50 mg b.i.d., week 2, LOCF, 12 weeks results): −13.6
- Subject VAS mean changes (ACR patient assessment) (2 × 50 mg b.i.d., week 2, LOCF, 24 weeks results): −13.8
- Subject VAS mean changes (ACR patient assessment) (2 × 50 mg b.i.d., week 4, LOCF, 12 weeks results): −16.9
- Subject VAS mean changes (ACR patient assessment) (2 × 50 mg b.i.d., week 4, LOCF, 24 weeks results): −16.9
- Subject VAS mean changes (ACR patient assessment) (2 × 50 mg b.i.d., week 8, LOCF, 12 weeks results): −21.0
- Subject VAS mean changes (ACR patient assessment) (2 × 50 mg b.i.d., week 8, LOCF, 24 weeks results): −21.0
- Subject VAS mean changes (ACR patient assessment) (2 × 50 mg b.i.d., week 12, LOCF, 12 weeks results): −27.0
- Subject VAS mean changes (ACR patient assessment) (2 × 50 mg b.i.d., week 12, LOCF, 24 weeks results): −27.0
- Subject VAS mean changes (ACR patient assessment) (2 × 50 mg b.i.d., week 16, LOCF, 24 weeks results): −26.3
- Subject VAS mean changes (ACR patient assessment) (2 × 50 mg b.i.d., week 20, LOCF, 24 weeks results): −29.7
- Subject VAS mean changes (ACR patient assessment) (2 × 50 mg b.i.d., week 24, LOCF, 24 weeks results): −28.1
- Subject VAS mean changes (ACR patient assessment) (2 × 100 mg b.i.d., week 0, LOCF, 12 weeks results): 0.0
- Subject VAS mean changes (ACR patient assessment) (2 × 100 mg b.i.d., week 1, LOCF, 12 weeks results): −20.0
- Subject VAS mean changes (ACR patient assessment) (2 × 100 mg b.i.d., week 2, LOCF, 12 weeks results): −25.5
- Subject VAS mean changes (ACR patient assessment) (2 × 100 mg b.i.d., week 2, LOCF, 24 weeks results): −25.5
- Subject VAS mean changes (ACR patient assessment) (2 × 100 mg b.i.d., week 4, LOCF, 12 weeks results): −28.6
- Subject VAS mean changes (ACR patient assessment) (2 × 100 mg b.i.d., week 4, LOCF, 24 weeks results): −28.2
- Subject VAS mean changes (ACR patient assessment) (2 × 100 mg b.i.d., week 8, LOCF, 12 weeks results): −32.8
- Subject VAS mean changes (ACR patient assessment) (2 × 100 mg b.i.d., week 8, LOCF, 24 weeks results): −33.0
- Subject VAS mean changes (ACR patient assessment) (2 × 100 mg b.i.d., week 12, LOCF, 12 weeks results): −35.6
- Subject VAS mean changes (ACR patient assessment) (2 × 100 mg b.i.d., week 12, LOCF, 24 weeks results): −35.6
- Subject VAS mean changes (ACR patient assessment) (2 × 100 mg b.i.d., week 16, LOCF, 24 weeks results): −37.9
- Subject VAS mean changes (ACR patient assessment) (2 × 100 mg b.i.d., week 20, LOCF, 24 weeks results): −39.1
- Subject VAS mean changes (ACR patient assessment) (2 × 100 mg b.i.d., week 24, LOCF, 24 weeks results): −39.1
